Source: PubChem BioAssay (NCI)
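Values below derive from 48-hour exposures of cells grown in 96-well plates, with endpoints linearly interpolated between the two concentrations bracketing the appropriate inhibition level. Abbreviation: GI50, concentration required for 50% inhibition of growth. Definition used: TGI = concentration required for complete inhibition of growth.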

What was measured:
Test in all cases: DTP human tumour cell line panel, 48 h
NCI-H226 lung = tested on: NCI-H226 lung
SK-MEL-2 melanoma = tested on: SK-MEL-2 melanoma
T-47D breast = tested on: T-47D breast
HS 578T breast = tested on: HS 578T breast
NCI-H522 lung = tested on: NCI-H522 lung
TK-10 renal = tested on: TK-10 renal
PC-3 prostate = tested on: PC-3 prostate
OVCAR-5 ovarian = tested on: OVCAR-5 ovarian
LOX IMVI melanoma = tested on: LOX IMVI melanoma
HOP-62 NSCLC = tested on: HOP-62 NSCLC
U251 CNS = tested on: U251 CNS
SF-539 CNS = tested on: SF-539 CNS
NCI-H460 lung = tested on: NCI-H460 lung
M14 melanoma = tested on: M14 melanoma
MDA-MB-231 breast = tested on: MDA-MB-231 breast
OVCAR-8 ovarian = tested on: OVCAR-8 ovarian
MCF7 breast = tested on: MCF7 breast
HCT-15 colon = tested on: HCT-15 colon
SNB-75 CNS = tested on: SNB-75 CNS
A549 NSCLC = tested on: A549 NSCLC
HCC-2998 colon = tested on: HCC-2998 colon
HL-60(TB) leukemia = tested on: HL-60(TB) leukemia
SR leukemia = tested on: SR leukemia
SF-295 CNS = tested on: SF-295 CNS
UO-31 renal = tested on: UO-31 renal
SNB-19 CNS = tested on: SNB-19 CNS
CCRF-CEM leukemia = tested on: CCRF-CEM leukemia
KM12 colon = tested on: KM12 colon
HT29 colon = tested on: HT29 colon
MALME-3M melanoma = tested on: MALME-3M melanoma
SN12C renal = tested on: SN12C renal
786-0 renal = tested on: 786-0 renal
OVCAR-4 ovarian = tested on: OVCAR-4 ovarian
NCI-H23 lung = tested on: NCI-H23 lung
DU-145 prostate = tested on: DU-145 prostate
SW-620 colon = tested on: SW-620 colon
OVCAR-3 ovarian = tested on: OVCAR-3 ovarian
UACC-62 melanoma = tested on: UACC-62 melanoma
RXF 393 renal = tested on: RXF 393 renal
SK-OV-3 ovarian = tested on: SK-OV-3 ovarian
NCI/ADR-RES ovarian = tested on: NCI/ADR-RES ovarian
HOP-92 NSCLC = tested on: HOP-92 NSCLC
CAKI-1 renal = tested on: CAKI-1 renal
SK-MEL-28 melanoma = tested on: SK-MEL-28 melanoma
ACHN renal = tested on: ACHN renal
IGROV1 ovarian = tested on: IGROV1 ovarian
MOLT-4 leukemia = tested on: MOLT-4 leukemia
MDA-MB-435 = tested on: MDA-MB-435
RPMI-8226 leukemia = tested on: RPMI-8226 leukemia
SF-268 CNS = tested on: SF-268 CNS
K-562 leukemia = tested on: K-562 leukemia
COLO 205 colon = tested on: COLO 205 colon
BT-549 breast = tested on: BT-549 breast
HCT-116 colon = tested on: HCT-116 colon
SK-MEL-5 melanoma = tested on: SK-MEL-5 melanoma

`COc1ccc(-c2nsc3c2NC(=O)CC3c2cccc(F)c2)cc1` (stereo not given) gave a GI50 (NCI-H226 lung) of 6.74 µM, a TGI (NCI-H226 lung) of over 100 µM and a GI50 (SK-MEL-2 melanoma) of 3.3 µM. For the same compound, the TGI (SK-MEL-2 melanoma) was 9.19 µM, the GI50 (T-47D breast) was 4.81 µM and the TGI (T-47D breast) was over 100 µM. The GI50 (HS 578T breast) was 3.95 µM, the TGI (HS 578T breast) was over 100 µM and the GI50 (NCI-H522 lung) was 3.39 µM. The TGI (NCI-H522 lung) was over 100 µM, the GI50 (TK-10 renal) was 5.26 µM and the TGI (TK-10 renal) was over 100 µM. For the same compound, the GI50 (PC-3 prostate) was 4.93 µM, the TGI (PC-3 prostate) was over 100 µM and the GI50 (OVCAR-5 ovarian) was 7.86 µM. The TGI (OVCAR-5 ovarian) was over 100 µM, the GI50 (LOX IMVI melanoma) was 6.5 µM and the TGI (LOX IMVI melanoma) was over 100 µM. The GI50 (HOP-62 NSCLC) was 8.79 µM, the TGI (HOP-62 NSCLC) was over 100 µM and the GI50 (U251 CNS) was 5.55 µM. For the same compound, the TGI (U251 CNS) was over 100 µM, the GI50 (SF-539 CNS) was 5.19 µM and the TGI (SF-539 CNS) was over 100 µM. For the same compound, the GI50 (NCI-H460 lung) was 3.63 µM, the TGI (NCI-H460 lung) was over 100 µM and the GI50 (M14 melanoma) was 3.44 µM. For the same compound, the TGI (M14 melanoma) was over 100 µM, the GI50 (MDA-MB-231 breast) was 6.34 µM and the TGI (MDA-MB-231 breast) was over 100 µM. The GI50 (OVCAR-8 ovarian) was 7.54 µM, the TGI (OVCAR-8 ovarian) was over 100 µM and the GI50 (MCF7 breast) was 3.89 µM. The TGI (MCF7 breast) was over 100 µM, the GI50 (HCT-15 colon) was 2.41 µM and the TGI (HCT-15 colon) was over 100 µM. For the same compound, the GI50 (SNB-75 CNS) was 4.78 µM, the TGI (SNB-75 CNS) was 86.2 µM and the GI50 (A549 NSCLC) was 5.16 µM. For the same compound, the TGI (A549 NSCLC) was over 100 µM, the GI50 (HCC-2998 colon) was 7.18 µM and the TGI (HCC-2998 colon) was over 100 µM. The GI50 (HL-60(TB) leukemia) was 4.21 µM, the TGI (HL-60(TB) leukemia) was over 100 µM and the GI50 (SR leukemia) was 2.44 µM. For the same compound, the TGI (SR leukemia) was over 100 µM, the GI50 (SF-295 CNS) was 6.68 µM and the TGI (SF-295 CNS) was over 100 µM. It also gave a GI50 (UO-31 renal) of over 100 µM, a TGI (UO-31 renal) of over 100 µM and a GI50 (SNB-19 CNS) of 5.91 µM. The TGI (SNB-19 CNS) was over 100 µM, the GI50 (CCRF-CEM leukemia) was 4.89 µM and the TGI (CCRF-CEM leukemia) was over 100 µM. For the same compound, the GI50 (KM12 colon) was 2.48 µM, the TGI (KM12 colon) was over 100 µM and the GI50 (HT29 colon) was 3.11 µM. For the same compound, the TGI (HT29 colon) was over 100 µM, the GI50 (MALME-3M melanoma) was 6.08 µM and the TGI (MALME-3M melanoma) was over 100 µM. It also gave a GI50 (SN12C renal) of 5.2 µM, a TGI (SN12C renal) of over 100 µM and a GI50 (786-0 renal) of 8.22 µM. The TGI (786-0 renal) was over 100 µM, the GI50 (OVCAR-4 ovarian) was 50.2 µM and the TGI (OVCAR-4 ovarian) was over 100 µM. For the same compound, the GI50 (NCI-H23 lung) was 5.02 µM, the TGI (NCI-H23 lung) was over 100 µM and the GI50 (DU-145 prostate) was 5.29 µM. For the same compound, the TGI (DU-145 prostate) was over 100 µM, the GI50 (SW-620 colon) was 3.08 µM and the TGI (SW-620 colon) was over 100 µM. The GI50 (OVCAR-3 ovarian) was 3.32 µM, the TGI (OVCAR-3 ovarian) was 12.3 µM and the GI50 (UACC-62 melanoma) was 4.35 µM. The TGI (UACC-62 melanoma) was over 100 µM, the GI50 (RXF 393 renal) was 4.04 µM and the TGI (RXF 393 renal) was over 100 µM. It also gave a GI50 (SK-OV-3 ovarian) of 5.28 µM, a TGI (SK-OV-3 ovarian) of over 100 µM and a GI50 (NCI/ADR-RES ovarian) of 2.96 µM. It also gave a TGI (NCI/ADR-RES ovarian) of 16.7 µM, a GI50 (HOP-92 NSCLC) of 3.57 µM and a TGI (HOP-92 NSCLC) of 40.6 µM. The GI50 (CAKI-1 renal) was 4.69 µM, the TGI (CAKI-1 renal) was over 100 µM and the GI50 (SK-MEL-28 melanoma) was 7.37 µM. For the same compound, the TGI (SK-MEL-28 melanoma) was over 100 µM, the GI50 (ACHN renal) was 5.95 µM and the TGI (ACHN renal) was over 100 µM. It also gave a GI50 (IGROV1 ovarian) of 13.8 µM, a TGI (IGROV1 ovarian) of over 100 µM and a GI50 (MOLT-4 leukemia) of 5 µM. For the same compound, the TGI (MOLT-4 leukemia) was over 100 µM, the GI50 (MDA-MB-435) was 0.827 µM and the TGI (MDA-MB-435) was 4.07 µM. It also gave a GI50 (RPMI-8226 leukemia) of 4.18 µM, a TGI (RPMI-8226 leukemia) of over 100 µM and a GI50 (SF-268 CNS) of 6.86 µM. It also gave a TGI (SF-268 CNS) of over 100 µM, a GI50 (K-562 leukemia) of 2.65 µM and a TGI (K-562 leukemia) of over 100 µM. The GI50 (COLO 205 colon) was 2.95 µM, the TGI (COLO 205 colon) was over 100 µM and the GI50 (BT-549 breast) was 7.77 µM. The TGI (BT-549 breast) was over 100 µM, the GI50 (HCT-116 colon) was 4.14 µM and the TGI (HCT-116 colon) was over 100 µM. The GI50 (SK-MEL-5 melanoma) was 2.81 µM and the TGI (SK-MEL-5 melanoma) was over 100 µM.
